According to US11168319B1, “Plant cell culture” (Inari Agriculture Technology, Inc., priority 2017, dated 2021):
Read-outs that look alike come from different tables or passages of the source.

Legend:
maize B73 protoplasts = settings: for protoplast viability: 288 hours; for Viability (%): 1 mM GSH
Method: (§1) Separate suspensions of maize B73 and A188 protoplasts (2×10^5 cells per milliliter) were prepared in YPIM B-liquid medium containing various combinations of the added salts calcium chloride, potassium ascorbate, and magnesium chloride or magnesium sulfate. One-half milliliter aliquots of the suspensions were dispensed into a 24-well microtiter plate in the arrangement shown in Table 2, which lists the concentrations of calcium chloride (“Ca”), potassium ascorbate (“A”), and magnesium chloride (“MgCl2”) or magnesium sulfate (“MgSO4”) in millimolar values.
(§2) Viability was judged by Evans blue staining and visualization under a light microscope.
Separate suspensions of maize B73, winter wheat, soy, and strawberry protoplasts (2×10^5 cells per milliliter) were prepared in YPIM B-liquid medium containing calcium chloride at 0, 50, or 100 millimolar. One-half milliliter aliquots of the suspensions were dispensed into a 24-well microtiter plate.
Viability at day 8 of culture was judged by visualization under a light microscope.
Viability at day 13 was judged by Evans blue staining and visualization under a light microscope.
Separate suspensions of maize B73 protoplasts (2×10^5 cells per milliliter) were prepared in PIM B-liquid medium (identical to YPIM B-medium except with the 6-benzylaminopurine substituted with 0.022 milligrams/L thidiazuron) containing calcium chloride added at 0, 5, 20, 40, 70, or 100 millimolar. One-half milliliter aliquots of the suspensions were dispensed into a 24-well microtiter plate.
Viability was judged by visualization under a light microscope at day 7 and at day 14 of culture.
(§3) Separate suspensions of maize B73 and A188 protoplasts (2×10^5 cells per milliliter) were prepared in PIM B-liquid medium (identical to YPIM B-medium except with the 6-benzylaminopurine substituted with 0.022 milligrams/L thidiazuron) containing calcium chloride added at 0 or 50 millimolar. One-half milliliter aliquots of the suspensions were dispensed into a 24-well microtiter plate.
(§4) Viability was judged by visualization under a light microscope.
(§5) Separate suspensions of maize B73 and A188 protoplasts (2×10^5 cells per milliliter) were prepared in YPIM B-liquid medium containing (a) calcium chloride added at 100 millimolar, or (b) 1 millimolar glutathione, or (c) no added calcium or glutathione. One-milliliter aliquots of the suspensions were dispensed into a 24-well microtiter plate. At 16, 40, 64, and 136 hours of culture, 50-microliter samples were taken for hemocytometer analysis from each well; for the plates containing maize A188 protoplasts, parallel 50-microliter samples were taken from a replicate well at 16, 40, and 64 hours of culture for quantification using a Cellometer cell counter (Nexcelom Bioscience LLC, Lawrence, Mass.).
(§6) Viability was determined by Evans blue staining and quantification using a hemocytometer. Under conditions with high concentrations of calcium, Evans blue can create precipitates that interfere with cell counting; to prevent this, 5 microliters of an EDTA solution was added to the samples from the wells containing 100 millimolar calcium chloride immediately prior to staining.

maize A188 protoplasts = test: Protoplast viability (Evans blue staining / light microscope / hemocytometer); assay type: cell-based; settings: for protoplast viability: 288 hours; for Viability (%): 1 mM GSH
Method: as §1, §2
Separate suspensions of maize A188 protoplasts (2×10^5 cells per milliliter) were prepared in YPIM B-liquid medium containing calcium chloride at 0 or 50 millimolar. One-half milliliter aliquots of the suspensions were dispensed into a 24-well microtiter plate.
as §4, §3, §5, §6

[1] = test system: maize B73 and A188 protoplasts; test: Protoplast viability, statements pooled for both maize lines; assay type: cell-based; settings: after 288 hours, various ascorbate concentrations (0.1-1 mM)
Method: as §1, §2
as §5, with “One-milliliter aliquots of the suspensions were dispensed into a 24-well microtiter plate.” left out
Viability was determined by Evans blue staining and quantification using a hemocytometer. […]

[2] = test system: maize (Zea mays) alcohol dehydrogenase ADH1 gene; test: HDR/NHEJ editing of endogenous gene in maize protoplasts (PCR, KpnI/NdeI); assay type: cell-based; settings: 0.5 mM GSH
Method: A ribonucleoprotein (RNP) was prepared with Cas9 nuclease (Aldevron, Fargo, N. Dak.) and a guide RNA complex designed to edit the first ADH1 exon, consisting of a crRNA (ZmADH1-B) with the sequence
Integrated DNA Technologies, Coralville, Iowa); the donor ssDNA contained three phosphorothioate linkages at each terminus (i.e., the three linkages between the most distal four bases on either end of the strand), and contained a KpnI restriction enzyme digestion site at nucleotide positions 67-72 (shown as underlined text). A double-stranded DNA (purchased from Integrated DNA Technologies, Coralville, Iowa) was designed with a forward strand having the sequence
wherein each strand was phosphorylated on the 5′ end and contained two phosphorothioate linkages at each terminus (i.e., the two linkages between the most distal three bases on either end of the strand); this contained an NdeI restriction site located at nucleotide positions 16-21 of the forward strand (SEQ ID NO:16), shown as underlined font. Insertion of this sequence into the first exon of the target gene ADH1 serves as a proxy readout for efficiency of the NHEJ pathway (i.e., non-homologous repair of the expected DSB).
(§7) Transfection procedures were essentially as described in Example 13. In a first experiment, cells were treated with the HDR ssDNA donor containing a Kpn1 restriction site, or with no donor polynucleotide. After transfection with the editing reagents, the washed and pelleted cells were then resuspended in PIM containing 50 millimolar CaCl2, and then plated in 6-well plates coated with 5% calf serum. The plates were sealed with Parafilm™ and allowed to incubate at 37 degrees Celsius for 1 hour. For the hypoxia treatment, the Parafilm™ was removed and the plates were then placed in a hypoxia chamber having about 5% oxygen by volume at 26 degrees Celsius in the dark. For normoxia treatment, the Parafilm™ was kept in place and the plates were incubated at 26 degrees Celsius in a growth chamber in the dark. Cells were harvested 48 hours and HDR editing efficacy was quantitated by PCR analysis using Phusion™ Flash PCR (Thermo Fisher Scientific, Waltham, Mass.).
as §7, with “In” for “Transfection procedures were essentially as described in Example 13. In”, “second” for “first”, “Kpn1 restriction site, or with the NHEJ dsDNA containing an NdeI” for “Kpn1”, “CaCl2, with or without 0.5 millimolar glutathione (GSH),” for “CaCl2,”, “subjected to” for “HDR editing efficacy was quantitated by”

maize B104 protoplasts = test: Cell division rate by EdU staining (% EdU); settings: for EdU staining mean %: Ca^2+ 100 mM, glutathione 0.5 mM, 90 h
Method: Cell division rates are expressed as “% EdU” (percentage of cells displaying the EdU signal relative to the total cell count).
Cell division was monitored, e.g., by microscopic observations. […] Evidence of cell division was observed by microscopy and included increased cell or protoplast size, bulging membranes, and large groups of organelles occupying the separating daughter cells. Quantification of cell division was carried out using fluorescent staining. […] Cells that are the result of cellular division in the presence of EdU were identified by the resulting green fluorescent signal, which can be quantified by various means, e.g., with a microplate reader, cell counter, or cell sorter.
In a separate experiment, maize HiIIA protoplasts were grown in 24-well plates using YPIM B-liquid medium containing 100 millimolar Ca^2+ and 20 micromolar EdU. Identical plates were incubated under hypoxia (5% oxygen by volume, 26 degrees Celsius, 80% relative humidity) or ambient oxygen (21% oxygen by volume, 26 degrees Celsius, 80% relative humidity). Entire wells (250 microliters) were taken for EdU detection at four time points. The contents of each well was centrifuged and the pellet subjected to the Click-iT™ EdU Alexa Fluor™ 488 Imaging Kit (catalogue number C10337, Thermo Fisher Scientific, Waltham, Mass.) fluorescent labelling protocol. The labelled protoplasts were resuspended in YPIM B-medium and samples analyzed on a Nexcelom Cellometer (Nexcelom Bioscience LLC, Lawrence, Mass.). This assay was developed to detect the EdU signal from the nucleus of a cell resulting from cell division, as well as the fluorescent signal from chloroplasts as a measure of total cell count.
Entire wells (1000 microliters) were taken for EdU detection at three time points; analyses were of duplicate samples of each of two replicate wells.

[3] = 100 mM added salt, YPIM B- medium

`O=S(=O)([O-])[O-].[Mg+2]` [magnesium sulfate] was tested, and the protoplast viability (maize B73 protoplasts; 50 or 100 mM) was “only a modest improvement”, the protoplast viability (maize A188 protoplasts; 50 mM added salt, YPIM B- medium) was 30-40% and the protoplast viability (maize A188 protoplasts; 50 or 100 mM) was “only a modest improvement”.

`O=C1O[C@H]([C@@H](O)CO)C([O-])=C1O.[K+]` [potassium ascorbate] was tested, and the protoplast viability (maize A188 protoplasts; 0.2 millimolar and above added to wells with added calcium) was “slightly decrease viability” and the viability [1] was “only slight effects”.

`N[C@@H](CCC(=O)N[C@@H](CS)C(=O)NCC(=O)O)C(=O)O` [glutathione] was tested, and the “Viability (%)” value (maize B73 protoplasts; 0 hours, hemocytometer) was 90%, the “Viability (%)” value (maize B73 protoplasts; 16 hours) was 77% and the “Viability (%)” value (maize B73 protoplasts; 40 hours) was 72%. The “Viability (%)” value (maize B73 protoplasts; 64 hours) was 48%, the “Viability (%)” value (maize B73 protoplasts; 136 hours) was 24% and the “Viability (%)” value (maize A188 protoplasts; 0 hours, hemocytometer) was 90%. For the same molecule, the “Viability (%)” value (maize A188 protoplasts; 16 hours) was 69%, the “Viability (%)” value (maize A188 protoplasts; 40 hours) was 50% and the “Viability (%)” value (maize A188 protoplasts; 64 hours) was 50%. The “Viability (%)” value (maize A188 protoplasts; 136 hours) was 42%, the “% KpnI (HDR)” value ([2]; editing reagents: Null) was 0.00% and the “% NdeI (NHEJ)” value ([2]; editing reagents: Null) was 0.00%. For the same molecule, the “% KpnI (HDR)” value ([2]; editing reagents: RNP only) was 0.00%, the “% NdeI (NHEJ)” value ([2]; editing reagents: RNP only) was 0.00% and the “% KpnI (HDR)” value ([2]; editing reagents: RNP plus HDR donor) was 5.0%. The “% KpnI (HDR)” value ([2]; editing reagents: RNP plus HDR donor, listed as GSH) was 5.00%, the “% NdeI (NHEJ)” value ([2]; editing reagents: RNP plus NHEJ donor) was “about 15%” and the “% NdeI (NHEJ)” value ([2]; editing reagents: RNP plus NHEJ donor, listed as GSH) was 15.01%. The “EdU staining mean %” value (maize B104 protoplasts; O2 5%) was 18.4%, the “EdU staining mean %” value (maize B104 protoplasts; O2 21%) was 16.9% and the “change in rate of cell division (% EdU)” value (maize B104 protoplasts; addition of 0.5 millimolar glutathione, hypoxic conditions, 100 mM Ca^2+) was “little change”. The “increase in rate of cell division (% EdU)” value (maize B104 protoplasts; addition of 0.5 millimolar glutathione, normal atmospheric oxygen, 100 mM Ca^2+) was “about 2 fold”.

`[Cl-].[Cl-].[Mg+2]` [magnesium chloride] was tested, and the protoplast viability (maize B73 protoplasts; [3]) was “much higher viability than any well”, the protoplast viability (maize A188 protoplasts; [3]) was “about 70%” and the plant protoplast viability (plant protoplasts; about 40 millimolar or about 50 millimolar) was “Even higher levels of plant protoplast viability”. The protoplast viability (plant protoplasts; between or about 50 to about 100 millimolar, several titration experiments) was “greatest improvement in protoplast viability” and the plant protoplast viability (plant protoplasts; culture medium contains about 30 millimolar) was “Beneficial effects”.
